The source of these data is article PMC9727064, “Performance assessment and economic analysis of a human Liver-Chip for predictive toxicology” (Communications Medicine, 2022).

Series [1] relates to human Liver-Chip (primary human hepatocytes). Put plainly: Liver-Chip albumin production in top channel effluent (ELISA). The class given is cell-based. As to conditions: expanded drug list; lowest multiplier causing a 50% reduction in albumin production; donor 1. From the text:
(§1) Cycles 1 to 4 tested 6–8 concentrations in duplicate for each of 10–13 drugs. To determine which sampling strategy was optimal for cycles 1 to 4 (16 doses × 1 replicate, 8 × 2, 5 × 3, or 4 × 4), we generated three different “dose-response” synthetic datasets, each distorted by different noise levels (low, medium, or high). For each of these datasets, we performed curve-fitting analyses and calculated the Root Mean Square Error between the “true” and estimated IC50 parameter. […] Some drugs were also repeated across cycles (on different donors or at different concentrations) to ensure experimental robustness. However, to replicate a more typical study design likely to be carried out by scientists in the pharmaceutical industry, we created cycle 5 with 6 drugs, where each was tested in 4 concentrations in triplicate. For each cycle, chips were dosed with drug over 8 days (referred to as Day 0 through Day 7).
(§2) The drug dosing concentrations were determined from the unbound human Cmax of each drug. First, the expected fraction of drug unbound in media with 2% FBS was extrapolated from plasma binding data for each drug. Dosing concentrations were then back calculated such that the unbound fraction in media would reflect relevant multiples of unbound human Cmax (Supplementary Data 1).
(§3) On the first dosing day (Day 0), all chips were imaged using the ECHO microscope. Five hundred microliters of effluent was collected from all four reservoirs of the pod and placed in a labeled 96-well plate. After collection, all the remaining media was carefully aspirated before dosing with 3.8 mL of corresponding dosing solution. Dosing occurred on study days 0, 2, and 4 for chips flowing at 30 µL/h, and on days 0, 1, 2, 3, 4, 5, and 6 for chips flowing at 150 µL/h. Effluent collection occurred on days 1, 3, and 7.
(§4) Top channel outlet effluents were analyzed to quantify albumin and alanine transaminase (ALT) levels on days 1, 3, and 7 using sandwich ELISA kits (Abcam, Albumin ab179887, ALT ab234578) according to vendor-provided protocols. Frozen (−80 °C) effluent samples were thawed overnight at 4 °C prior to assay. The Hamilton Vantage liquid handling platform was used to manage effluent dilutions (1:500 for albumin, neat for ALT), preparation of standard curves, and addition of antibody cocktail. Absorbance at 450 nm was measured using the SynergyNeo Microplate Reader (BioTek).
All statistical analyses were conducted in R[21] (version 4.1.2) and figures were produced using the R package ggplot2[22] (version 3.3.5). The dose-response analysis (Fig. 4) was carried out using the popular drc R package developed by Ritz et al.[23] using the generalized log-logistic dose-response model. The error bars in Figs. 3 and 4, correspond to the standard errors of the mean. The circles in Fig. 3 correspond to the samples used to calculate the corresponding statistics. The analysis of significance in Fig. 3 was performed using paired t-test across different days (same donor) and unpaired t-test across different donors (same day). In Fig. 3 the number of samples used were n = 3 for donor two, and n = 4 for donor three. For both donors, the number of the freshly thawed hepatocyte samples used to estimate the corresponding log2(Fold Change) were n = 4. Finally, the analysis of significance in Fig. 3 was performed using paired t-test.

For series [2] the following is noted: cited from earlier work.
Series [3] deals with human Liver-Chip (primary human hepatocytes). Briefly: Liver-Chip alanine transaminase (ALT) release in top channel effluent (ELISA). The series is classed as cell-based.
From the text: as §1, §2, §3, §4

The subject of series [4] is human Liver-Chip (hepatocytes and non-parenchymal cells). As to conditions: for Morphology Donor 1: human. The method, then: At least four to six brightfield images were acquired per chip for morphology analysis. […] Brightfield images were acquired across three fields of view on days 1, 3, and 7 for each cycle. Cytotoxicity classification was performed while acquiring images for both NPCs and hepatocytes. Images were then scored zero to four by blinded individuals (n = 2) based on severity of agglomeration of cell debris for both channels. The scoring matrix and representative images have been included in the supplement (Supplementary Fig. 1).
Hepatocyte layer on Chips
Non-parenchymal cell layer on Chips
Supplementary Figure 1. (a) Representative brightfield images to depict the cellular morphology score in the top channel of the Liver-Chip which contains hepatocytes. A score of 0 represents no hepatotoxicity detected, which is defined by 95-100% healthy hepatocyte morphology, hexagonal shape containing binucleated cells, clear cell cytoplasm, distinctive cell junctions and less than 5% dead cells. A score of 1 […]
cells. A score of 2 represents mild hepatotoxicity with > 70% monolayer of hepatocytes visible, evidence that cells have begun to lose their distinct cell junctions, many cells contain a granulated cytoplasm but < 30% are dead cells. A score of 3 represents moderate hepatotoxicity with severe granulation of cytoplasm and most of the cells have lost their junctions. Approximately 50% of the cells are considered dead. A score of 4 represents severe hepatotoxicity with agglomeration of cell debris and > 50% of the cells are considered dead. The pores on the membrane become visible as there is no longer a cellular monolayer. (b) Representative brightfield images to depict the cellular morphology score in the bottom channel of the Liver-Chip which contains non-parenchymal cells. A score of 0 represents no cytotoxicity detected, with an intact monolayer and <1% of the cells are dead. A score of 1 represents at least 90% of the monolayer is present and there are <10% dead cells. A score of 2 represents mild cytotoxicity with > 80% of the monolayer present and < 20% are dead cells. A score of 3 represents moderate cytotoxicity with > 50% of the monolayer present and < 50% are dead cells. A score of 4 represents severe cytotoxicity with > 50% of the cells are considered dead. (bar, 50 μm). […]

Series [5] deals with human Liver-Chip (hepatocyte layer). Briefly: Liver-Chip immunofluorescence imaging (caspase 3/7, TMRM, AdipoRed/LipidTOX). The class given is cell-based. The method, then:
Chips were detached from pods and washed once with PBS. […] Afterwards, chips were washed with PBS and stored at 4 °C until staining. Following fixation, chips corresponding to low, medium, and high concentrations from each group were cut in half with a razor blade perpendicular to the co-culture channels. One half was used in the following staining protocol, while the other half was stored for future staining. All stains and washes utilized the bubble method, in which a small amount of air is flowed through the channel prior to bulk wash media to prevent a liquid-liquid dilution of the staining solution. […] Following 15 minutes of incubation at room temperature, each channel was washed with 200 µL of PBS (alternating channels, 2× for top and 3× for bottom). As an alternative lipid accumulation marker, 100 µL of HCS LipidTOX Deep Red (ThermoFisher, H34477) was diluted 1:1000 v/v in PBS with NucBlue counterstain and added to the top channel. After a 30 min incubation at room temperature, the chips were again allowed to reach room temperature before the channels were alternatively washed with 200 µL of PBS, the bottom channel undergoing three washes and the top channel undergoing two. Chips were then imaged using the Opera Phenix. Following lipid and DAPI staining and imaging, chips were stained with a […] (MRP2) antibody to visualize the bile canalicular structures characteristic of healthy Liver-Chips. […] Then, each channel was washed with 200 µL of PBS (alternating channels, 2× for top and 3× for bottom). […] Next, primary antibody Mouse anti-MRP2 (Abcam, ab3373) was prepared 1:100 in the original blocking buffer, diluted 1:4 in PBS. 100 µL of solution was added to each channel, and chips were stored overnight at 4 °C. The following day, each channel was washed with 200 µL of PBS (alternating channels, 2× for top and 3× for bottom). […] 100 µL of solution was added to each channel and chips incubated at room temperature, protected from light, for two hours. Then, each channel was washed with 200 µL of PBS (alternating channels, 2× for top and 3× for bottom). Chips were imaged immediately or stored at 4 °C until ready for imaging on the Opera Phenix. Chip replicates designated for live cell imaging were washed with PBS utilizing the bubble method. Chips were then cut in half perpendicular to the co-culture channels. […] The bottom chips halves were stained with NucBlue (Thermo) to visualize nuclei and Tetramethylrhodamine, methyl ester (TMRM) (ThermoFisher, I34361) to visualize active mitochondria. This staining panel was prepared in PBS with 5% FBS, with NucBlue at 2 drops per mL and TMRM at a 1:1000 ratio in original blocking buffer, diluted 1:4 in PBS. Chips were incubated in the dark at 37 °C for 30 min, and then each channel was washed with 200 µL of PBS (alternating channels, 2× for top and 3× for bottom). The chips were kept at 37 °C, protected from light, until ready for imaging with the Opera Phenix. Fluorescent confocal image acquisition was performed using the Opera Phenix High-Content Screening System and Harmony 4.9 Imaging and Analysis Software (PerkinElmer). Before acquisition, the Phenix internal environment was set to 37 °C and 5% CO2. […] Whole chips were placed directly into each slot, while top and bottom half chips were matched and combined in one chip slot. Chips were aligned flush with the adapter and one another. Any bubbles identified from visual inspection were washed out with PBS. Once ready, the stained chips were covered with transparent plate film to seal channel ports and loaded into the Phenix. […] Z-stacks were generated with 3.6 µm between slices for 28–32 planes so that the epithelium was located around the center of the stack. […] Raw images from fixed and live imaging were exported in TIFF format from the Harmony software. Using scripts written for FIJI (ImageJ), TIFFs across three color channels and multiple z-stacks were compiled into composite images for each field of view in each chip. […]

In series [6] the test system is human Liver-Chip. Put plainly: Liver-Chip DILI prediction: minimum toxic concentration and margin of safety (MOS)-like figure.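 Note: Toxic concentration is the lowest across albumin IC50 and ALT and morphology endpoints.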 The settings on record: free IC50 concentration in the assay divided by total concentration of drug in human plasma at Cmax. From the text:
Because the fundamental principles of drug action dictate that free (unbound) drug concentrations drive drug effects, we explored an alternative methodology for calculating the MOS-like values by accounting for protein binding using a previously reported approach. Accordingly, we reanalyzed the findings for the 27 drugs in our study by accounting for protein binding.

Series [7] concerns 3D spheroid cultures of primary human hepatocytes. As to conditions: cited from earlier work.
Series [8] relates to clinical drug-induced liver injury. As to conditions: clinical DILI severity category 1 to 5; cited from earlier work.
For series [9] the following is noted: plasma, cited from earlier work.
[10] abbreviates: human, total plasma Cmax, ref Proctor, W.R. et al. (29).

Structures can show the parent of a compound that is named as a salt. Where two headings read alike, the source gives them in different places.

With `C[C@]12CC[C@@H]3c4ccc(O)cc4CC[C@H]3[C@@H]1CC[C@@H]2O` [Beta-Estradiol], the “Albumin IC50 Donor 1” value in [1] was >300 unbound human Cmax multiplier. Also, in series [2] (human, total plasma Cmax, ref Sivapalasingam, S. & Steigbigel, N. H. (67)), the “Human Cmax Total” value was 0.0006 µM.

On to `O=C1CC2(CCCC2)CC(=O)N1CCCCN1CCN(c2ncccn2)CC1` [Buspirone], for which the “ALT Donor 1” value in series [3] (lowest concentration causing an increase in ALT protein) was > 300 multiples of the unbound human Cmax. In series [4], the “Morphology Donor 1” value is recorded as >300 multiples of the unbound human Cmax. The “IF imaging Donor 1” value in series [5] (matched pair analysis) is “Apoptosis”. In addition, the “Chip MOS donor 1” value in series [6] was more than 15. For the same molecule, in series [2] (setting [10]), the “Human Cmax Total” value was 0.009 µM. Also, the “Spheroid MOS” value in series [7] (3D hepatic spheroids, previously published data) is 16,300. Further, the Spheroid false negative entry in series [7] (Yes/No, also No for drugs not tested in spheroid) is “No”. Moreover, the “Garside DILI rank” value in series [8] was 4.

For `CN(C)CCC(c1ccc(Cl)cc1)c1ccccn1` (stereo not shown) [Chlorpheniramine maleate], the “Human Cmax Total” value in series [2] (setting [10]) was 0.04 µM.

Regarding `CN(C)CCC(c1ccc(Cl)cc1)c1ccccn1` (stereo not shown) [Chlorpheniramine], the “Chip MOS donor 1” value in [6] is reported as more than 200. Further, the “Garside DILI rank” value in series [8] was 3.

Take `CN1CCN(C2=Nc3cc(Cl)ccc3Nc3ccccc32)CC1` [Clozapine]: the “Chip MOS both donors” value in series [6] (both donors) is listed as 1.8. Besides, the “Chip MOS donor 1” value in [6] is 1.8. For the same molecule, in series [6] (donor 2), the “Chip MOS donor 2” value is 5. In addition, the “Human Cmax Total” value in series [2] (setting [10]) is 2.4 µM. Also, the “Expected Fraction Unbound in Plasma” value in series [9] (ref Lau, S.W.J. (65)) is listed as 0.055.

Take `O=C(O)Cc1ccccc1Nc1c(Cl)cccc1Cl` [Diclofenac sodium]: the “Human Cmax Total” value in series [2] (setting [10]) is 10.1 µM. In series [9] (ref Lau, S.W.J. (65)), the “Expected Fraction Unbound in Plasma” value is recorded as 0.005.

Turning to `O=C(O)Cc1ccccc1Nc1c(Cl)cccc1Cl` [Diclofenac], the “ALT change in words” value in series [3] (Liver-Chip effluent) is “no elevation of ALT”. Moreover, the “ALT Donor 1” value in series [3] (expanded drug list, lowest concentration causing an increase in ALT release) was > 1000 unbound human Cmax multiplier. Besides, in [4], the “Morphological injury score change in words” value is “concentration and time-dependent changes”; the “Morphology Donor 1” value is given as 1000 unbound human Cmax multiplier. Also, the “Immunofluorescence staining result in words” value in [5] (caspase 3/7 (apoptosis) or TMRM (mitotoxicity), 7 days) is given as “apoptosis-mediated cell death”. Besides, the “Immunofluorescent findings, donor one (Supplementary Figure 3)” value in series [5] (day 7 post-drug administration, hepatocyte layer, top channel, donor one) is given as “Apoptosis”. Moreover, the “IF imaging Donor 1” value in series [5] (expanded drug list) is given as “Apoptosis”. In addition, in series [6], the “Chip MOS donor 1” value is recorded as 1.8. Moreover, the “Spheroid MOS” value in [7] is 6.1.

Turning to `CCc1nn(CCCN2CCN(c3cccc(Cl)c3)CC2)c(=O)n1CCOc1ccccc1` [Nefazodone hydrochloride], the “Human Cmax Total” value in series [2] (setting [10]) was 4.3 µM.

On to `Cc1cc2c(cc1CC(=O)c1sccc1S(=O)(=O)[N-]c1onc(C)c1Cl)OCO2.[Na+]` [Sitax(s)entan sodium salt], for which the “Human Cmax Total” value in series [2] (human, total plasma Cmax, ref National Center for Biotechnology Information (73)) is 28.6 µM. In addition, the “Expected Fraction Unbound in Plasma” value in [9] (reference data from the literature, no reference) is 0.01.

On to `N[C@@H]1[C@H]2CN(c3nc4c(cc3F)c(=O)c(C(=O)O)cn4-c3ccc(F)cc3F)C[C@@H]12` [Trovafloxacin mesylate], for which the “Human Cmax Total” value in [2] (human therapeutic total plasma Cmax from literature, ref Xu, J. J. et al. (36)) is 5 µM; in [2] (human, total plasma Cmax, ref Xu, J. J. et al. (36)), 5 µM.
